One compound from US6455561B1, “Heterocyclic compounds and their therapeutic use” (Darwin Discovery, Ltd., priority 2000, dated 2002) can be followed below.

Molecules are shown by their SMILES.

For the experiment, the system named is eosinophilia. Put plainly: Guinea pig lung model (inhibition of eosinophilia). The experiment is classed as in vivo. Particulars: dosed at 3 mg/kg. On the procedure:
Activity in a guinea pig lung model is measured using the procedures described by Mauser et al, Am. Rev. Respir. Dis. 148:1623 (1993), and Am. J. Respir. Crit. Care Med. 152:467 (1995).

`COCc1cc2c(C(=O)Nc3c(C)noc3C)ccc(OC)c2o1` [Example 10, 7-Methoxy-2-methoxymethylbenzofuran-4-carboxylic Acid (3,5-dimethylisoxazol-4-yl)-amide] yielded an inhibition of eosinophilia of 35%.
